Measured values from US11891401B2, “Solid forms of N-(4-fluoro-3-(6-(3-methylpyridin-2-yl)-[1,2,4]triazolo[1,5-a]pyrimidin-2-yl)phenyl)-2,4-dimethyloxazole-5-carboxamide” (NOVARTIS AG, priority 2018, dated 2024).
≈ marks a conversion by molar mass, not a printed value.

How the values were obtained:
Format in all cases: physicochemical
[1] = Solid-state chemical stability: degradation products by UPLC/HPLC after stress storage; settings: for DP % (Degradation Product), Bulk (UPLC): Solid state
Experimental: (§1) Compound I, Compound I fumaric acid co-crystals and amorphous Compound I fumaric acid samples (10 mg) were placed in an open vial at 50° C./75% RH and 80° C./75% RH chamber for one week. A same amount of sample was placed in a closed vial at 50° C. and 80° C. chamber for 1 week. The samples were exposed to 100 k Lux light for 12 h at 25° C. Solids were examined by XRPD for physical stability determination and by UPLC for chemical stability determination. The color of the samples was evaluated by visual observation. Table 5 compares the stability of Compound I and its various solid forms.

[2] = Solid-state physical stability: form change by XRPD after stress storage; settings: for Bulk (XRPD): Solid state
Experimental: as §1

[3] = Solubility in various media at 25° C. after 24 hours equilibration (UPLC); settings: for final pH of the sample (in parentheses): after 24 hours equilibration
[4] = Dynamic Vapor Sorption (DVS) moisture absorption / hygroscopicity; settings: for solid form after DVS: after DVS testing
[5] = Crystal form after grinding, compression and wet granulation; settings: compression and wet granulation (water and ethanol), listed as free form hydrate
[6] = Form after storage at 92% RH; settings: 24 hrs
[7] = Form after degradation at 160° C.
[8] = 50° C., 50° C./75& RH, 80° C. and 80° C./75% RH for one week
[9] = 1 week 50° C., closed container
[10] = 1 week 80° C., closed container

chemical stability in bulk [1, 8]: chemically stable
stability upon exposure to light ([1]; 1200 kLuxh light for 12 hrs): stable
DP % (Degradation Product), Bulk (UPLC) [1, 9]: 0.6%
DP % (Degradation Product), Bulk (UPLC) ([1]; 1 week 50° C./75% r.h.): 0.6%
DP % (Degradation Product), Bulk (UPLC) [1, 10]: 0.6%
DP % (Degradation Product), Bulk (UPLC) ([1]; 1 week 80° C./75% r.h.): 0.6%
DP % (Degradation Product), Amber vial (HPLC) ([1]; Xenon light (approx. 1200 kLuxh), amber vial): 0.8%
DP % (Degradation Product), Clear vial (HPLC) ([1]; Xenon light (approx. 1200 kLuxh), clear vial): 0.6%
form change in bulk [2, 8]: form changes were noticed
form obtained upon exposure to 75% RH humidity ([2]; 75% RH at both temperatures (50° C. and 80° C.), one week): a dihydrate was obtained
Bulk (XRPD) [2, 9]: no change
Bulk (XRPD) ([2]; 1 week 50° C./75% r.h.): change
Bulk (XRPD) [2, 10]: change
final pH of the sample (in parentheses) ([3]; 0.01N HCl pH 2.0): 2.10
solubility ([3]; 0.1N HCl pH 1.0, 25° C., 24 hours equilibration): 232 µg/mL (≈ 523 µM)
final pH of the sample (in parentheses) ([3]; 0.1N HCl pH 1.0): 1.00
solubility ([3]; FaSSIF pH 6.5, 25° C., 24 hours equilibration): 4 µg/mL (≈ 9.02 µM)
final pH of the sample (in parentheses) ([3]; FaSSIF pH 6.5): 6.31
solubility ([3]; FeSSIF pH 5.8, 25° C., 24 hours equilibration): 6 µg/mL (≈ 13.5 µM)
final pH of the sample (in parentheses) ([3]; FeSSIF pH 5.8): 5.73
solubility ([3]; SGF pH 2.0, 25° C., 24 hours equilibration): 29 µg/mL (≈ 65.4 µM)
final pH of the sample (in parentheses) ([3]; SGF pH 2.0): 1.99
solubility ([3]; acetate buffer pH 4.7, 25° C., 24 hours equilibration): 2 µg/mL (≈ 4.51 µM)
final pH of the sample (in parentheses) ([3]; acetate buffer pH 4.7): 4.68
solubility ([3]; borate buffer pH 10.0, 25° C., 24 hours equilibration): 2 µg/mL (≈ 4.51 µM)
final pH of the sample (in parentheses) ([3]; borate buffer pH 10.0): 8.58
solubility ([3]; phosphate buffer pH 6.8, 25° C., 24 hours equilibration): 1 µg/mL (≈ 2.26 µM)
final pH of the sample (in parentheses) ([3]; phosphate buffer pH 6.8): 6.65
solubility at 24 h ([3]; simulated gastric fluid, thermodynamic from solid, 0.01N HCl pH 2.0, 25° C., 24 hours equilibration): 17 µg/mL (≈ 38.3 µM)
solubility ([3]; water, 25° C., 24 hours equilibration): 9 µg/mL (≈ 20.3 µM)
final pH of the sample (in parentheses) ([3]; water): 8.18
solid form after DVS ([4]; listed as Compound I free form): changes into a dihydrate
solid form after DVS ([4]; listed as free form hydrate): form change that is likely a dihydrate
moisture absorption by DVS ([4]; at 25° C., RH not stated): 8.9%
hygroscopicity ([4]; by DVS, listed as free form hydrate): hygroscopic
form after storage at 92% RH ([6]; listed as Compound I free form): changes into a dihydrate
form after storage at 92% RH ([6]; listed as free form hydrate): dihydrate
form after degradation at 160° C. [7]: converts to an amorphous form
Compound: Cc1nc(C)c(C(=O)Nc2ccc(F)c(-c3nc4ncc(-c5ncccc5C)cn4n3)c2)o1 [Free Form, N-(4-fluoro-3-(6-(3-methylpyridin-2-yl)-[1,2,4]triazolo[1,5-a]pyrimidin-2-yl)phenyl)-2,4-dimethyloxazole-5-carboxamide]
form observed ([2]; under 50° C./75% RH): mixture of the free form hydrate and anhydrous modification
crystal form after grinding, compression and wet granulation [5]: converted to a different hydrate or a hydrate mixture
